# Results taken from patent US9394297B2, “Amides as pim inhibitors” (AMGEN INC., priority 2012, dated 2016).
# Read-outs that look alike come from different tables or passages of the source.
# Tests used:
# Pim-1 [1] = molecular target: T1, Pim-1 (Homo sapiens (Human), UniProt P11309); assay: Pim enzyme assay (HTRF, 96-well), Pim-1; assay type: biochemical; conditions: full length recombinant Pim-1, biotinylated-BAD (S112) peptide, 10-point curve, 2 h RT, read-out: Pim-1 IC50 IP
# Excerpt: (§1) These cDNAs were used as templates in PCR reactions to produce full-length DNA clones of the PIMs. […] PCR products were digested with BclI and EcoRI for Pim-1 and BamHI and EcoRI for Pim-2 and ligated into a modified baculovirus transfer vector (pFastBac1) cleaved with BamHI and EcoRI. For bacterial expression, the same cleaved PCR products encoding Pim-1 or Pim-2 were ligated into a modified E. coli expression vector pET28(a) cleaved with BamHI and EcoRI. Amino-terminal hexahistidine tags followed by a thrombin cleavage site were previously added to the vectors using standard methods of molecular biology.
# (§2) Recombinant baculoviruses expressing Pim-1 or Pim-2 were made using standard methods (Fastbac manual, Invitrogen, Carlsbad, Calif.). […] Cells were harvested by centrifugation and frozen at −80 C. For E. coli expression, cells carrying pET28-His6-Th-Pim-1 or pET28-His6-Th-Pim-2 were picked from a single colony and grown o/n in LB media. The o/n culture was used to inoculate a 2 liter flask with 500 mL media. This was grown o/n and used to inoculate 15-20 liters of Terrific Broth in a New Brunswick Scientific fermentor. The E. coli were grown at 37° C. to and OD600 >1.6. The temperature was dropped to 18° C. and o/n expression was induced with 0.5 mM IPTG. Cells were harvested by centrifugation and frozen at −80° C.
# (§3) The slurry was centrifuged at 1,000×g for 5 min, the supernatant decanted, and the resin suspended in 40 mL of lysis wash buffer (lysis buffer at 0.75 M NaCl). This step was repeated 3× and the resin was transferred to a 2.5 cm glass column. Ten column volumes of wash buffer (0.05 M HEPES, pH 8.0, 0.1 M NaCl, 0.01 M 2-mercaptoethanol, 10%(w/v) glycerol) were applied to the resin followed by 10 column volumes of elution buffer (0.05 M HEPES, pH 8.0, 0.25 M NaCl, 0.01 M 2-mercaptoethanol, 10%(w/v) glycerol, 0.1 M imidazole). Fractions were analyzed by SDS-PAGE and those containing the protein of interest were pooled and concentrated. The concentrated protein was applied to an Amersham Superdex 75 (XK 26/60) column equilibrated in 0.025 M Tris-HCl, pH 7.5, 0.1 M NaCl, 0.01 M 2-mercaptoethanol, 10% (w/v) glycerol. […] Fractions containing the monomeric protein of interest were pooled, concentrated to ˜2 mg/mL, and stored at −80° C.
# (§4) The phosphorylation of biotinylated-BAD (S112) peptide by full length recombinant Pim-1, Pim-2, or Pim-3 protein was detected with streptavidin:Allophycocyanin (APC) conjugate and a europium (Eu) labeled antibody directed against phosphorylated-BAD (S112). […] The fluorescence is directly proportional to the amount of phosphorylated BAD peptide present in the reaction. […] A reference compound was included on each assay plate in order to validate that plate; on one plate of every assay run, two additional reference compounds were included. The final buffer conditions were as follows: 60 mM Hepes, pH 7.0, 0.05% BSA, 2 mM DTT. Incubations were carried out at RT (22° C.) for 2 h for Pim-1, 1 hour and 30 min for Pim-3, and 45 min for Pim-2. The reaction was stopped by the addition of 3 mM EDTA, and fluorescence was measured by an HTRF® Rubystar microplate reader. For each plate, percent of control (POC) values were calculated for each well. Values for the IC50 IP were estimated using a standard 4-parameter logistic model.
# Pim-2 [2] = molecular target: T2, Pim-2 (Homo sapiens (Human), UniProt Q9P1W9); assay: Pim enzyme assay (HTRF, 96-well), Pim-2; assay type: biochemical; conditions: full length recombinant Pim-2, biotinylated-BAD (S112) peptide, 10-point curve, 45 min RT, read-out: Pim-2 IC50 IP
# Excerpt: as §1, §2, §3, §4
# [3] = tested on: KMS-12-BM myeloma cell line; assay: Pim KMS-12 cell assay (phospho-BAD S112 / total BAD, MSD)
# Pim-1 [4] = molecular target: T1, Pim-1; assay: Pim-Mn enzyme assay (HTRF, 384-well), Pim-1; assay type: biochemical; conditions: Pim-1 enzyme 5 pM, ATP 1.5 μM, BAD (S112) 0.5 μM, HTRF, 22-point curve; read-out: Pim-1-Mn IC50 IP
# Pim-2 [5] = molecular target: T2, Pim-2; assay: Pim-Mn enzyme assay (HTRF, 384-well), Pim-2; assay type: biochemical; conditions: Pim-2 enzyme 0.5 pM, ATP 1.5 μM, BAD (S112) 0.5 μM, HTRF, 22-point curve; read-out: Pim-2-Mn IC50 IP
# [6] = Homo sapiens, KMS-12-BM, read-out: KMS-12-BM IC50 IP, KMS-12-BM cells, phospho-BAD (S112) vs total BAD, 1 hour 50 min with compound
# T2 sequence (Q9P1W9 whole entry): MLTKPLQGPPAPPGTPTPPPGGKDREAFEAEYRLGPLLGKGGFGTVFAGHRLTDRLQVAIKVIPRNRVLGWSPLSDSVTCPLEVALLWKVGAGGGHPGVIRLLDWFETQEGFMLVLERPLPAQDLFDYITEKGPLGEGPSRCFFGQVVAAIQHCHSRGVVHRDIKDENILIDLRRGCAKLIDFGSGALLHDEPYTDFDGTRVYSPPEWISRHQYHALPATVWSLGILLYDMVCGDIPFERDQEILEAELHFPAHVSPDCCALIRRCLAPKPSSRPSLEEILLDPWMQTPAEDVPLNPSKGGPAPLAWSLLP
# T1 sequence (P11309 whole entry): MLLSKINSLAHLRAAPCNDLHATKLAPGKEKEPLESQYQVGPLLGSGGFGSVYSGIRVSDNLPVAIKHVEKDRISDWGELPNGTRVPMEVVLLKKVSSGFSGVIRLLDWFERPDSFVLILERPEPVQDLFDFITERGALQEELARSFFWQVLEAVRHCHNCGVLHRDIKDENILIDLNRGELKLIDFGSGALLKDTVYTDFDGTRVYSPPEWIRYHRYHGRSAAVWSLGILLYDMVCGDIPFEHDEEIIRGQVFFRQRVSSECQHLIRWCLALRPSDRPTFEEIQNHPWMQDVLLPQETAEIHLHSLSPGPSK
Structure (SMILES),IC50 (Pim-1 [1]) [nM],IC50 (Pim-2 [2]) [nM],"IC50 [3, 6] [nM]",further results
"O=C1NCCc2[nH]c(-c3cccc4cnc(Oc5ccccc5)nc34)cc21 [Example 236, 2-(2-phenoxyquinazolin-8-yl)-6,7-dihydro-1H-pyrrolo[3,2-c]pyridin-4(5H)-one 2,2,2-trifluoroacetate]",34.2,40.2,,
"O=C1NCCc2[nH]c(-c3cccc4ccc(-c5ccccc5)nc34)cc21 [Example 226, 2-(2-phenylquinolin-8-yl)-6,7-dihydro-1H-pyrrolo[3,2-c]pyridin-4(5H)-one]",25.3,38.1,,
"O=C1NCCc2[nH]c(-c3cccc4ccc(C5(c6ccccc6)CC5)nc34)cc21 [Example 114, 2-(2-(1-phenylcyclopropyl)quinolin-8-yl)-6,7-dihydro-1H-pyrrolo[3,2-c]pyridin-4(5H)-one]",,8.9,4180,
"O=C1NCCc2[nH]c(-c3cccc4cnc(Nc5ccccc5)nc34)cc21 [Example 251, 2-(2-(phenylamino)quinazolin-8-yl)-6,7-dihydro-1H-pyrrolo[3,2-c]pyridin-4(5H)-one]",8.3,13.5,,
"CC1Cc2[nH]c(-c3cccc4ccc(Nc5ccccc5)nc34)cc2C(=O)N1 (racemic) [Example 237, rac-6-methyl-2-(2-(phenylamino)quinolin-8-yl)-6,7-dihydro-1H-pyrrolo[3,2-c]pyridin-4(5H)-one]",,34.2,6580,
"CCC1CNC(=O)c2cc(-c3cccc4cc(C)c(Nc5ccccc5)nc34)[nH]c21 (racemic) [Example 250, rac-7-ethyl-2-(3-methyl-2-(phenylamino)quinolin-8-yl)-6,7-dihydro-1H-pyrrolo[3,2-c]pyridin-4(5H)-one]",1,,2820,
"CC(Oc1ccc2cccc(-c3cc4c([nH]3)CCNC4=O)c2n1)C(F)(F)F (racemic) [Example 79, rac-2-(2-((1,1,1-trifluoropropan-2-yl)oxy)quinolin-8-yl)-6,7-dihydro-1H-pyrrolo[3,2-c]pyridin-4(5H)-one]",,204,,
"CN1CCN(C(=O)c2ccc3cccc(-c4cc5c([nH]4)CCNC5=O)c3n2)CC1 [Example 97, 2-(2-(4-methylpiperazine-1-carbonyl)quinolin-8-yl)-6,7-dihydro-1H-pyrrolo[3,2-c]pyridin-4(5H)-one]",227,,,
"CC1Cc2[nH]c(-c3cccc4ccc(Nc5ccccc5)nc34)cc2C(=O)N1 (single isomer, unassigned) [Example 33, 6-methyl-2-(2-(phenylamino)quinolin-8-yl)-6,7-dihydro-1H-pyrrolo[3,2-c]pyridin-4(5H)-one]",,35.3,4100,
"O=C1NCCc2[nH]c(-c3cccc4ccc(Sc5ccccc5)nc34)cc21 [Example 5, 2-(2-(phenylthio)quinolin-8-yl)-6,7-dihydro-1H-pyrrolo[3,2-c]pyridin-4(5H)-one]",,11.5,5700,
"Cc1nc2cccc(-c3cc4n(c3)CCNC4=O)c2nc1NC1CC1 [Example 233, 7-(3-(cyclopropylamino)-2-methylquinoxalin-5-yl)-3,4-dihydropyrrolo[1,2-a]pyrazin-1(2H)-one 2,2,2-trifluoroacetate]",44.6,,621,IC50 (Pim-1 [4]): 25 nM
"CC(C)CC1CNC(=O)c2cc(-c3cccc4cccnc34)[nH]c21 (racemic) [Example 125, rac-7-isobutyl-2-(quinolin-8-yl)-6,7-dihydro-1H-pyrrolo[3,2-c]pyridin-4(5H)-one]",41.8,,,IC50 (Pim-1 [4]): 21.1 nM; IC50 (Pim-2 [5]): 278 nM

# Second part, led by results:
IC50 (Pim-1 [1]) [nM],IC50 (Pim-2 [2]) [nM],"IC50 [3, 6] [nM]",Structure (SMILES),further results
671,667,,"O=C1NCCn2cc(-c3cccc4ccc(C(=O)N5CCOCC5)nc34)cc21 [Example 167, 7-(2-(morpholine-4-carbonyl)quinolin-8-yl)-3,4-dihydropyrrolo[1,2-a]pyrazin-1(2H)-one]",
,177,,"Cc1nc2cccc(-c3cc4c([nH]3)CCNC4=O)c2nc1NC1CCC(=O)N(C)C1 (racemic) [Example 195, rac-2-(2-methyl-3-((1-methyl-6-oxopiperidin-3-yl)amino)quinoxalin-5-yl)-6,7-dihydro-1H-pyrrolo[3,2-c]pyridin-4(5H)-one 2,2,2-trifluoroacetate]",
,61,,"CC1CNC(=O)c2cc(-c3cccc4ccc(Oc5ccccc5)nc34)[nH]c21 (racemic) [Example 28, rac-7-methyl-2-(2-phenoxyquinolin-8-yl)-6,7-dihydro-1H-pyrrolo[3,2-c]pyridin-4(5H)-one]",
,6.6,376,"CCCNc1nc2c(-c3cc4c([nH]3)CCNC4=O)cccc2nc1C [Example 191, 2-(2-methyl-3-(propylamino)-5-quinoxalinyl)-1,5,6,7-tetrahydro-4H-pyrrolo[3,2-c]pyridin-4-one]",
,366,,"CC1CNC(=O)c2cc(-c3cccc4ccc(Cl)nc34)[nH]c21 (racemic) [Example 27, rac-2-(2-chloroquinolin-8-yl)-7-methyl-6,7-dihydro-1H-pyrrolo[3,2-c]pyridin-4(5H)-one]",
,15.8,8810,"O=C1NCCc2[nH]c(-c3cccc4ccc(Oc5cccc(O)c5)nc34)cc21 [Example 109, 2-(2-(3-hydroxyphenoxy)quinolin-8-yl)-6,7-dihydro-1H-pyrrolo[3,2-c]pyridin-4(5H)-one]",
0.6,,3150,"CCC1CNC(=O)c2cc(-c3cccc4cc(C)c(Nc5ccccc5)nc34)[nH]c21 (single isomer, unassigned) [Example 117, 7-ethyl-2-(3-methyl-2-(phenylamino)quinolin-8-yl)-6,7-dihydro-1H-pyrrolo[3,2-c]pyridin-4(5H)-one]",
,> 1000,,"Cc1nc2cccc(-c3cc4c([nH]3)CCNC4=O)c2nc1F [Example 126, 2-(3-fluoro-2-methylquinoxalin-5-yl)-6,7-dihydro-1H-pyrrolo[3,2-c]pyridin-4(5H)-one]",
,73.3,,"CC1Cc2[nH]c(-c3cccc4ccc(Nc5ccccc5)nc34)cc2C(=O)N1 (single isomer, unassigned) [Example 34, 6-methyl-2-(2-(phenylamino)quinolin-8-yl)-6,7-dihydro-1H-pyrrolo[3,2-c]pyridin-4(5H)-one]",
3.2,,,"CCC1CNC(=O)c2cc(-c3cccc4cc(C)c(Nc5ccccc5)nc34)[nH]c21 (single isomer, unassigned) [Example 118, 7-ethyl-2-(3-methyl-2-(phenylamino)quinolin-8-yl)-6,7-dihydro-1H-pyrrolo[3,2-c]pyridin-4(5H)-one]","IC50 ([3]; read-out: KMS-12-BM IC50 IP, KMS-12-BM cells, phospho-BAD (S112) vs total BAD, 1 hour 50 min with compound): 5210 nM"
283,,,"COCCNC(=O)c1ccc2cccc(-c3cc4c([nH]3)CCNC4=O)c2n1 [Example 96, N-(2-methoxyethyl)-8-(4-oxo-4,5,6,7-tetrahydro-1H-pyrrolo[3,2-c]pyridin-2-yl)quinoline-2-carboxamide]",
